Measurements published in ChEMBL document CHEMBL1201862, “PubChem BioAssay data set” (2004).
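A five-concentration, 48-hour dose response in 96-well plates underlies each endpoint, interpolated linearly between surrounding concentrations. GI50: concentration for 50% inhibition of growth.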 Active and inactive are the calls of the source. No stated cut-off is given here; in the data, active = GI50 up to about 1.1 µM and inactive = higher.

Key:
Test in all cases: inhibition of tumour cell growth, NCI panel, 48 h
786-0 = test system: 786-0
A549 = test system: A549
ACHN = test system: ACHN
CAKI-1 = test system: CAKI-1
CCRF-CEM = test system: CCRF-CEM
COLO 205 = test system: COLO 205
DLD-1 = test system: DLD-1
DMS-114 = test system: DMS-114
DMS-273 = test system: DMS-273
EKVX = test system: EKVX
HCC 2998 = test system: HCC 2998
HCT-116 = test system: HCT-116
HCT-15 = test system: HCT-15
HL-60 = test system: HL-60
HOP-18 = test system: HOP-18
HOP-62 = test system: HOP-62
HOP-92 = test system: HOP-92
HT-29 = test system: HT-29
IGROV-1 = test system: IGROV-1
K562 = test system: K562
KM-20L2 = test system: KM-20L2
KM12 = test system: KM12
LOX IMVI = test system: LOX IMVI
LXFL 529 = test system: LXFL 529
M19-MEL = test system: M19-MEL
MOLT-4 = test system: MOLT-4
Malme-3M = test system: Malme-3M
NCI-H226 = test system: NCI-H226
NCI-H23 = test system: NCI-H23
NCI-H460 = test system: NCI-H460
NCI-H522 = test system: NCI-H522
OVCAR-3 = test system: OVCAR-3
OVCAR-5 = test system: OVCAR-5
OVCAR-8 = test system: OVCAR-8
RXF 393 = test system: RXF 393
RXF 631 = test system: RXF 631
SF-268 = test system: SF-268
SF-295 = test system: SF-295
SF-539 = test system: SF-539
SK-MEL-28 = test system: SK-MEL-28
SK-MEL-2 = test system: SK-MEL-2
SK-MEL-5 = test system: SK-MEL-5
SK-OV-3 = test system: SK-OV-3
SN12C = test system: SN12C
SNB-19 = test system: SNB-19
SR = test system: SR
SW-620 = test system: SW-620
TK-10 = test system: TK-10
U-251 = test system: U-251
UACC-257 = test system: UACC-257
UACC-62 = test system: UACC-62
XF498 = test system: XF498
M14 = test system: M14
OVCAR-4 = test system: OVCAR-4
RPMI-8226 = test system: RPMI-8226
SNB-75 = test system: SNB-75
UO-31 = test system: UO-31
A498 = test system: A498
SNB-78 = test system: SNB-78

Compound: C=CCNC(=S)NNC(=O)c1c(C)nc2sccn12
- GI50 (786-0): > 100 µM (inactive)
- GI50 (A549): > 100 µM (inactive)
- GI50 (ACHN): > 100 µM (inactive)
- GI50 (CAKI-1): > 100 µM (inactive)
- GI50 (CCRF-CEM): > 100 µM (inactive)
- GI50 (COLO 205): > 100 µM (inactive)
- GI50 (DLD-1): > 100 µM (inactive)
- GI50 (DMS-114): > 100 µM (inactive)
- GI50 (DMS-273): > 100 µM (inactive)
- GI50 (EKVX): > 100 µM (inactive)
- GI50 (HCC 2998): > 100 µM (inactive)
- GI50 (HCT-116): > 100 µM (inactive)
- GI50 (HCT-15): > 100 µM
- GI50 (HL-60): > 100 µM (inactive)
- GI50 (HOP-18): > 100 µM (inactive)
- GI50 (HOP-62): > 100 µM (inactive)
- GI50 (HOP-92): 70 µM (inactive)
- GI50 (HT-29): > 100 µM (inactive)
- GI50 (IGROV-1): > 100 µM (inactive)
- GI50 (K562): > 100 µM (inactive)
- GI50 (KM-20L2): > 100 µM (inactive)
- GI50 (KM12): > 100 µM (inactive)
- GI50 (LOX IMVI): > 100 µM (inactive)
- GI50 (LXFL 529): > 100 µM (inactive)
- GI50 (M19-MEL): > 100 µM (inactive)
- GI50 (MOLT-4): > 100 µM (inactive)
- GI50 (Malme-3M): > 100 µM (inactive)
- GI50 (NCI-H226): > 100 µM (inactive)
- GI50 (NCI-H23): > 100 µM (inactive)
- GI50 (NCI-H460): > 100 µM (inactive)
- GI50 (NCI-H522): > 100 µM (inactive)
- GI50 (OVCAR-3): > 100 µM (inactive)
- GI50 (OVCAR-5): > 100 µM (inactive)
- GI50 (OVCAR-8): > 100 µM (inactive)
- GI50 (RXF 393): > 100 µM (inactive)
- GI50 (RXF 631): > 100 µM (inactive)
- GI50 (SF-268): > 100 µM (inactive)
- GI50 (SF-295): > 100 µM (inactive)
- GI50 (SF-539): > 100 µM (inactive)
- GI50 (SK-MEL-28): > 100 µM (inactive)
- GI50 (SK-MEL-2): > 100 µM (inactive)
- GI50 (SK-MEL-5): > 100 µM (inactive)
- GI50 (SK-OV-3): > 100 µM (inactive)
- GI50 (SN12C): > 100 µM (inactive)
- GI50 (SNB-19): > 100 µM (inactive)
- GI50 (SR): > 100 µM (inactive)
- GI50 (SW-620): > 100 µM (inactive)
- GI50 (TK-10): > 100 µM (inactive)
- GI50 (U-251): > 100 µM (inactive)
- GI50 (UACC-257): > 100 µM (inactive)
- GI50 (UACC-62): > 100 µM (inactive)
- GI50 (XF498): > 100 µM (inactive)

Compound: O=C(O)C1=CNC(C(=O)O)=NN1
- GI50 (786-0): > 100 µM (inactive)
- GI50 (A549): > 100 µM (inactive)
- GI50 (ACHN): > 100 µM (inactive)
- GI50 (CAKI-1): > 100 µM (inactive)
- GI50 (CCRF-CEM): > 100 µM (inactive)
- GI50 (COLO 205): > 100 µM (inactive)
- GI50 (DLD-1): > 100 µM (inactive)
- GI50 (DMS-114): > 100 µM (inactive)
- GI50 (EKVX): > 100 µM (inactive)
- GI50 (HCT-116): > 100 µM (inactive)
- GI50 (HCT-15): > 100 µM
- GI50 (HL-60): > 100 µM (inactive)
- GI50 (HOP-18): > 100 µM (inactive)
- GI50 (HOP-62): > 100 µM (inactive)
- GI50 (HOP-92): > 100 µM (inactive)
- GI50 (HT-29): > 100 µM (inactive)
- GI50 (IGROV-1): > 100 µM (inactive)
- GI50 (K562): > 100 µM (inactive)
- GI50 (KM-20L2): > 100 µM (inactive)
- GI50 (KM12): > 100 µM (inactive)
- GI50 (LXFL 529): > 100 µM (inactive)
- GI50 (M14): > 100 µM (inactive)
- GI50 (M19-MEL): > 100 µM (inactive)
- GI50 (MOLT-4): > 100 µM (inactive)
- GI50 (Malme-3M): > 100 µM (inactive)
- GI50 (NCI-H226): > 100 µM (inactive)
- GI50 (NCI-H23): > 100 µM (inactive)
- GI50 (NCI-H460): > 100 µM (inactive)
- GI50 (NCI-H522): > 100 µM (inactive)
- GI50 (OVCAR-3): > 100 µM (inactive)
- GI50 (OVCAR-4): > 100 µM (inactive)
- GI50 (OVCAR-8): > 100 µM (inactive)
- GI50 (RPMI-8226): > 100 µM (inactive)
- GI50 (RXF 393): > 100 µM (inactive)
- GI50 (RXF 631): > 100 µM (inactive)
- GI50 (SF-268): > 100 µM (inactive)
- GI50 (SF-295): > 100 µM (inactive)
- GI50 (SF-539): > 100 µM (inactive)
- GI50 (SK-MEL-28): > 100 µM (inactive)
- GI50 (SK-MEL-2): > 100 µM (inactive)
- GI50 (SK-MEL-5): > 100 µM (inactive)
- GI50 (SK-OV-3): > 100 µM (inactive)
- GI50 (SN12C): > 100 µM (inactive)
- GI50 (SNB-19): > 100 µM (inactive)
- GI50 (SNB-75): > 100 µM (inactive)
- GI50 (SR): > 100 µM (inactive)
- GI50 (SW-620): > 100 µM (inactive)
- GI50 (TK-10): > 100 µM (inactive)
- GI50 (U-251): > 100 µM (inactive)
- GI50 (UACC-257): > 100 µM (inactive)
- GI50 (UACC-62): > 100 µM (inactive)
- GI50 (UO-31): > 100 µM (inactive)
- GI50 (XF498): > 100 µM (inactive)

Compound: N#CCCn1[nH]c(=O)c(Cl)c(Cl)c1=O
- GI50 (786-0): 18.7 µM (inactive)
- GI50 (A498): 20.2 µM (inactive)
- GI50 (A549): 22.7 µM (inactive)
- GI50 (ACHN): 17 µM (inactive)
- GI50 (COLO 205): 22.2 µM (inactive)
- GI50 (DLD-1): 10.3 µM (inactive)
- GI50 (DMS-114): 14.9 µM (inactive)
- GI50 (EKVX): 3.87 µM (inactive)
- GI50 (HCC 2998): 13.1 µM (inactive)
- GI50 (HCT-116): 15.1 µM (inactive)
- GI50 (HCT-15): 10.4 µM
- GI50 (HL-60): 11.3 µM (inactive)
- GI50 (HOP-18): 16.9 µM (inactive)
- GI50 (HOP-62): > 10 µM (inactive)
- GI50 (HOP-92): 6.21 µM (inactive)
- GI50 (HT-29): 11.8 µM (inactive)
- GI50 (IGROV-1): 17.1 µM (inactive)
- GI50 (K562): 6.12 µM (inactive)
- GI50 (KM-20L2): 15.8 µM (inactive)
- GI50 (KM12): 14.5 µM (inactive)
- GI50 (LOX IMVI): 15 µM (inactive)
- GI50 (LXFL 529): 16.9 µM (inactive)
- GI50 (M19-MEL): 12 µM (inactive)
- GI50 (MOLT-4): 15.9 µM (inactive)
- GI50 (Malme-3M): 17.3 µM (inactive)
- GI50 (NCI-H226): 23 µM (inactive)
- GI50 (NCI-H23): 15.2 µM (inactive)
- GI50 (NCI-H460): 13.3 µM (inactive)
- GI50 (NCI-H522): 20.2 µM (inactive)
- GI50 (OVCAR-3): 13.6 µM (inactive)
- GI50 (OVCAR-4): 18 µM (inactive)
- GI50 (OVCAR-5): 18.8 µM (inactive)
- GI50 (OVCAR-8): 15.7 µM (inactive)
- GI50 (RPMI-8226): 11.5 µM (inactive)
- GI50 (RXF 393): 17.1 µM (inactive)
- GI50 (RXF 631): 19.6 µM (inactive)
- GI50 (SF-268): 16.3 µM (inactive)
- GI50 (SF-295): 18.1 µM (inactive)
- GI50 (SF-539): 23.3 µM (inactive)
- GI50 (SK-MEL-28): 15.8 µM (inactive)
- GI50 (SK-MEL-2): 14.7 µM (inactive)
- GI50 (SN12C): 17.4 µM (inactive)
- GI50 (SNB-19): 15.4 µM (inactive)
- GI50 (SNB-75): 13.2 µM (inactive)
- GI50 (SNB-78): 19.6 µM (inactive)
- GI50 (SR): 14.7 µM (inactive)
- GI50 (SW-620): 17.8 µM (inactive)
- GI50 (TK-10): 35.8 µM (inactive)
- GI50 (U-251): 16.6 µM (inactive)
- GI50 (UACC-257): 18.9 µM (inactive)
- GI50 (UO-31): 18.9 µM (inactive)
- GI50 (XF498): 16.1 µM (inactive)
